System: NICD (Notch intracellular domain) CSL-bla reporter in HeLa cells
Experiment: Notch assay (CellSensor T-REx NICD CSL-bla HeLa beta-lactamase reporter; Method 1 / Method 2)
Assay type: cell-based
Conditions: Homo sapiens, 10 μM compound, Method 1 (10× compound prepared in assay medium, added to plated cells), read-out: inhibiton (%) at 10 μM
From the text: We used the CellSensor T-REx™ NICD CSL-bla HeLa cell line, which was engineered by lentiviral transduction of HeLa cells with a Notch response element driving beta-lactamase reporter gene expression (CSL-bla) along with DOX (doxycycline)-inducible NICD (Notch intracellular domain) constructs. Addition of DOX to these cells allows for regulated NICD transcription factor expression and subsequent beta-lactamase expression.
Specifically, the following protocol was used.
NOTCH ASSAY PROTOCOL (Method 2)
• 1. Add 40 nL/well of working concentration of 1000× compound to 384-well assay plate with Echo. • 2. Plate Cells: 35 μl/well of HeLa/T-REx™ NICD CSL-bla cells at 10^3 cells/well complete medium into 384-well plate. • 3. Add 5 μl 8× Doxycycline in Assay Medium to the treated wells, and 5 μl Assay Medium to the Untreated and cell free control wells. • 4. Incubate the assay plate in a humidified 37° C./5% CO2 incubator for 16-20 hours. • 5. Preparation of 6× LiveBLAzer™-FRET B/G Substrate (CCF4-AM) Mixture according to the manual and cell loading should be done in the absence of direct strong lighting. • 6. Remove assay plate from the humidified 37° C./5% CO2 incubator. Add 8 μl of 6× Substrate Mixture from Step 5 to each well. Cover the plate to protect it from light and evaporation. Incubate at room temperature for 4 hours. • 7. Reading an Assay Plate using the following filter selections:
• 8. Data analysis: Use the assay plate layout to identify the location of the Cell-free wells. These control wells are used for background subtraction. Determine the average emission from the Cell-free wells at both 460 nm (Average Blue Background) and 530 nm(Average Green Background). Subtract the Average Blue Background (data collected at 460 nm) from all of the blue emission data. Subtract the Average Green background (data collected at 530 nm) from all of the green emission data. Calculate the Blue/Green Emission Ratio for each well, by dividing the background-subtracted blue emission values by the background-subtracted green emission values.
Instead of Step 1 to Step 3, the following Step a to Step d can also be performed. The subsequent steps are the same as Method 2, after Step 4 (Method 1). • a. Plate Cells: 32 μL/well of HeLa/T-REx™ NICD CSL-bla cells at 10^3 cells/well complete medium into 384-well plate. • b. Prepare 10× compounds in assay medium. • c. Add 4 μL compounds or 1% DMSO in assay medium to the cells. • d. Add 4 μL 10×Doxycycline in Assay Medium to the treated wells, and 4 μL Assay Medium to the Untreated and cell free control wells.
The results are shown in Table 13 (Table 13-1 to Table 13-2).

SMILES | inhibition at 10 µM [%]
CCCC[C@@H]1ON(C(=O)OCc2ccccc2)C2CN(CCCC)C(=O)[C@H](Cc3ccc(O)cc3)N2C1=O (stereo partly drawn) [Compound I-8, (3S,6S)-benzyl 3,8-dibutyl-6-(4-hydroxybenzyl)-4,7-dioxohexahydropyrazino[2,1-c][1,2,4]oxadiazine-1(6H)-carboxylate] | 60.2
CCCC[C@H]1ON(C(=O)OCc2cccc3ccccc23)C2CN(CC3CCCCC3)C(=O)[C@H](Cc3ccc(O)cc3)N2C1=O (stereo partly drawn) [Compound I-10, (3R,6S)-naphthalen-1-ylmethyl 3-butyl-8-(cyclohexylmethyl)-6-(4-hydroxybenzyl)-4,7-dioxohexahydropyrazino[2,1-c][1,2,4]oxadiazine-1(6H)-carboxylate] | 57.2
CCCC[C@H]1C(=O)N(CCC(N)=O)CC2N(C(=O)OCc3cccc4ccccc34)O[C@@H](Cc3ccccc3)C(=O)N21 (stereo partly drawn) [Compound I-25, (3S,6S)-naphthalen-1-ylmethyl 8-(3-amino-3-oxopropyl)-3-benzyl-6-butyl-4,7-dioxohexahydropyrazino[2,1-c][1,2,4]oxadiazine-1(6H)-carboxylate] | 70.3
CCCC[C@H]1C(=O)N(CC2CCCCC2)CC2N(C(=O)OCc3cccc4ccccc34)O[C@@H](CC(N)=O)C(=O)N21 (stereo partly drawn) [Compound I-26, (3S,6S)-naphthalen-1-ylmethyl 3-(2-amino-2-oxoethyl)-6-butyl-8-(cyclohexylmethyl)-4,7-dioxohexahydropyrazino[2,1-c][1,2,4]oxadiazine-1(6H)-carboxylate] | 68.4
CCCC[C@H]1C(=O)N(CCC(C)C)CC2N(C(=O)OCc3cccc4ccccc34)O[C@H](CC(N)=O)C(=O)N21 (stereo partly drawn) [Compound I-20, (3R,6S)-naphthalen-1-ylmethyl 3-(2-amino-2-oxoethyl)-6-butyl-8-isopentyl-4,7-dioxohexahydropyrazino[2,1-c][1,2,4]oxadiazine-1(6H)-carboxylate] | 66.1
CCCC[C@@H]1ON(C(=O)OCc2cccc3ccccc23)C2CN(C(C)C)C(=O)[C@H](Cc3ccc(O)cc3)N2C1=O (stereo partly drawn) [Compound I-23, (3S,6S)-naphthalen-1-ylmethyl 3-butyl-6-(4-hydroxybenzyl)-8-isopropyl-4,7-dioxohexahydropyrazino[2,1-c][1,2,4]oxadiazine-1(6H)-carboxylate] | 50.4

Same assay, conditions: Homo sapiens, 10 μM compound, Method 2 (40 nL of 1000× compound added to plate with Echo), read-out: inhibiton (%) at 10 μM

SMILES | inhibition at 10 µM [%]
CC(C)C[C@H]1ON(C(=O)OCC2CCCCC2)C2CN(C3CCNCC3)C(=O)[C@H](CC(C)C)N2C1=O (stereo partly drawn) [Compound I-135, cyclohexylmethyl (3R,6S)-3,6-diisobutyl-4,7-dioxo-8-(piperidin-4-yl)hexahydropyrazino[2,1-c][1,2,4]oxadiazine-1(6H)-carboxylate] | 110
CC(C)CCCNC(=O)[C@H](CC(C)C)N1CC2N(C(=O)OCCc3ccc(O)cc3)O[C@H](Cc3ccccc3)C(=O)N2[C@@H](Cc2ccc(O)cc2)C1=O (stereo partly drawn) [Compound I-104, 4-hydroxyphenethyl (3R,6S)-3-benzyl-6-(4-hydroxybenzyl)-8-((S)-4-methyl-1-((4-methylpentyl)amino)-1-oxopentan-2-yl)-4,7-dioxohexahydropyrazino[2,1-c][1,2,4]oxadiazine-1(6H)-carboxylate] | 70.2
CC(C)C[C@@H](C(=O)NCCc1ccccc1)N1CC2N(C(=O)OCCc3ccccc3)O[C@H](Cc3ccc(O)cc3)C(=O)N2[C@@H](Cc2ccc(O)cc2)C1=O (stereo partly drawn) [Compound I-115, phenethyl (3R,6S)-3,6-bis(4-hydroxybenzyl)-8-((S)-4-methyl-1-oxo-1-(phenethylamino)pentan-2-yl)-4,7-dioxohexahydropyrazino[2,1-c][1,2,4]oxadiazine-1(6H)-carboxylate] | 51.1
CC(C)CCOC(=O)N1O[C@H](C)C(=O)N2C1CN([C@@H](Cc1ccccc1)C(=O)NCCCO)C(=O)[C@@H]2Cc1ccccc1 (stereo partly drawn) [Compound I-89, isopentyl (3R,6S)-6-benzyl-8-((S)-1-((3-hydroxypropyl)amino)-1-oxo-3-phenylpropan-2-yl)-3-methyl-4,7-dioxohexahydropyrazino[2,1-c][1,2,4]oxadiazine-1(6H)-carboxylate] | 58.3
CC(C)CCCNC(=O)[C@H](Cc1ccc(O)cc1)N1CC2N(C(=O)OCCC(C)C)O[C@H](CC(C)C)C(=O)N2[C@@H](Cc2ccc(O)cc2)C1=O (stereo partly drawn) [Compound I-98, isopentyl (3R,6S)-6-(4-hydroxybenzyl)-8-((S)-3-(4-hydroxyphenyl)-1-((4-methylpentyl)amino)-1-oxopropan-2-yl)-3-isobutyl-4,7-dioxohexahydropyrazino [2,1-c][1,2,4]oxadiazine-1(6H)-carboxylate] | 60.4
O=C(NCCc1ccccc1)[C@H](Cc1ccccc1)N1CC2N(C(=O)OCCc3ccc(O)cc3)O[C@H](Cc3ccc(O)cc3)C(=O)N2[C@@H](Cc2ccccc2)C1=O (stereo partly drawn) [Compound I-83, 4-hydroxyphenethyl (3R,6S)-6-benzyl-3-(4-hydroxybenzyl)-4,7-dioxo-8-((S)-1-oxo-1-(phenethylamino)-3-phenylpropan-2-yl)hexahydropyrazino [2,1-c][1,2,4]oxadiazine-1(6H)-carboxylate] | 76.2
CC(C)CCNC(=O)[C@H](Cc1ccccc1)N1CC2N(C(=O)OCCc3ccccc3)O[C@H](CCC(N)=O)C(=O)N2[C@@H](Cc2ccccc2)C1=O (stereo partly drawn) [Compound I-90, phenethyl (3R,6S)-3-(3-amino-3-oxopropyl)-6-benzyl-8-((S)-1-(isopentylamino)-1-oxo-3-phenylpropan-2-yl)-4,7-dioxohexahydropyrazino[2,1-c][1,2,4]oxadiazine-1(6H)-carboxylate] | 62.4
CC(C)CCOC(=O)N1O[C@H](C)C(=O)N2C1CN([C@@H](Cc1ccccc1)C(=O)NCCO)C(=O)[C@@H]2Cc1ccccc1 (stereo partly drawn) [Compound I-88, isopentyl (3R,6S)-6-benzyl-8-((S)-1-((2-hydroxyethyl)amino)-1-oxo-3-phenylpropan-2-yl)-3-methyl-4,7-dioxohexahydropyrazino[2,1-c][1,2,4]oxadiazine-1(6H)-carboxylate] | 63.9
CC(C)CCOC(=O)N1O[C@H](C)C(=O)N2C1CN([C@@H](Cc1ccccc1)C(=O)NCCCC(N)=O)C(=O)[C@@H]2Cc1ccccc1 (stereo partly drawn) [Compound I-87, isopentyl (3R,6S)-8-((S)-1-((4-amino-4-oxobutyl)amino)-1-oxo-3-phenylpropan-2-yl)-6-benzyl-3-methyl-4,7-dioxohexahydro-pyrazino[2,1-c] [1,2,4]oxadiazine-1(6H)-carboxylate] | 58.3
CCCCCOC(=O)N1O[C@H](Cc2ccc(O)cc2)C(=O)N2C1CN([C@@H](Cc1ccc(O)cc1)C(=O)NCCc1ccccc1)C(=O)[C@@H]2Cc1ccc(O)cc1 (stereo partly drawn) [Compound I-118, pentyl (3R,6S)-3,6-bis(4-hydroxybenzyl)-8-((S)-3-(4-hydroxyphenyl)-1-oxo-1-(phenethylamino)propan-2-yl)-4,7-dioxohexahydropyrazino[2,1-c][1,2,4]oxadiazine-1(6H)-carboxylate] | 63.3
CC[C@H](C)OC(=O)N1O[C@H](Cc2ccccc2)C(=O)N2C1CN(CCc1cccc3ccccc13)C(=O)[C@@H]2CCCCN (stereo partly drawn) [Compound I-33, (3R,6S)-(S)-sec-butyl 6-(4-aminobutyl)-3-benzyl-8-(2-(naphthalen-1-yl)ethyl)-4,7-dioxohexahydropyrazino[2,1-c][1,2,4]oxadiazine-1(6H)-carboxylate] | 59.6
NC(=O)CC[C@H]1C(=O)N([C@@H](Cc2ccccc2)C(=O)NCCCc2ccccc2)CC2N(C(=O)OCCc3ccc(O)cc3)O[C@H](Cc3ccccc3)C(=O)N21 (stereo partly drawn) [Compound I-126, 4-hydroxyphenethyl (3R,6S)-6-(3-amino-3-oxopropyl)-3-benzyl-4,7-dioxo-8-((S)-1-oxo-3-phenyl-1-((3-phenylpropyl)amino)propan-2-yl)hexahydropyrazino [2,1-c][1,2,4]oxadiazine-1(6H)-carboxylate] | 67.2
CCCCCOC(=O)N1O[C@H](Cc2ccccc2)C(=O)N2C1CN([C@@H](CC(C)C)C(=O)NCCCc1ccc(O)cc1)C(=O)[C@@H]2CCC(N)=O (stereo partly drawn) [Compound I-127, pentyl (3R,6S)-6-(3-amino-3-oxopropyl)-3-benzyl-8-((S)-1-((3-(4-hydroxyphenyl)propyl)amino)-4-methyl-1-oxopentan-2-yl)-4,7-dioxohexahydropyrazino [2,1-c][1,2,4]oxadiazine-1(6H)-carboxylate] | 62.1

From patent publication US20230374034A1, “NOVEL BICYCLIC COMPOUNDS” (PRISM BIOLAB CO., LTD., priority 2020, published 2023)
